The target in experiment [1] is T1, KOR (Homo sapiens, UniProt P41145). Briefly: biochemical. The format is binding. As to conditions: for Ki: KOR, [3H]U69593, mean ± SEM, N = 2–4.
For another experiment, the target named is hDAT (Homo sapiens, UniProt Q01959). Briefly: Radioligand binding at DAT. Conditions: 10 μM; [3H]WIN35428; negative = enhanced radioligand binding.
In another experiment the target is T2, mA1AR (Mus musculus, UniProt Q60612).
T2 sequence (Q60612 1-326): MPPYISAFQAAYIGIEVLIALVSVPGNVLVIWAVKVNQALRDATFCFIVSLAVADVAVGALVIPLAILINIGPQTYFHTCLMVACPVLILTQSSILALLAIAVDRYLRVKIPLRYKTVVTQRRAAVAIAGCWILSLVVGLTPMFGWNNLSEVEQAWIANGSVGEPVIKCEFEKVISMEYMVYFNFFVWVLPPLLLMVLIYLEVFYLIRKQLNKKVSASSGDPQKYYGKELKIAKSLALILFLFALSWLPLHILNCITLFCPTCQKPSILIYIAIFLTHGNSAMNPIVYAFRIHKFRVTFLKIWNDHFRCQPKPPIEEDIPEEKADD
The experiment can be described thus: mA1AR binding. As to conditions: read-out: mA1AR binding, % inhibition at 10 μM.

For a further experiment, the target named is mA2AAR (Mus musculus, UniProt Q60613). Briefly: mA2AAR binding. As to conditions: read-out: mA2AAR binding, % inhibition at 10 μM.
Another experiment has as its target DOR (Homo sapiens, UniProt P41143). The experiment can be described thus: Radioligand binding at DOR.
The target in the next experiment is MOR (Homo sapiens, UniProt P35372). Briefly: biochemical. The format is binding. Conditions: for MOR, inhibition of radioligand binding at 10 μM (class): Table 2.
For a further experiment, the target named is rat kidney TSPO (Rattus norvegicus, UniProt P16257). The experiment can be described thus: Radioligand binding at TSPO. As to conditions: for Ki: TSPO, rat TSPO, [3H]PK11195.
Another experiment addresses T3, hA3AR (Homo sapiens, UniProt P0DMS8).
T3 sequence (P0DMS8 1-318): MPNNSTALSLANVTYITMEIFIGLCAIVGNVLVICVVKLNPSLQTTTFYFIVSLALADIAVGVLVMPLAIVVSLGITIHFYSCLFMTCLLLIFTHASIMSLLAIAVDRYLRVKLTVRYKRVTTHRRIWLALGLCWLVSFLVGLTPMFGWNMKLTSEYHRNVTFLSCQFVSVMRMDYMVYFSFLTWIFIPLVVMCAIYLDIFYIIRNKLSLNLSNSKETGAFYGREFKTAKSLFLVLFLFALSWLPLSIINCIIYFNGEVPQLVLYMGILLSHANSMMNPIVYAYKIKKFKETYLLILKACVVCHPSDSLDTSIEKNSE
The experiment can be described thus: A3AR binding.

Experiment [2] has as its target T1, KOR. The format is cell-based. Conditions: 1 μM 98.
The target in experiment [3] is T1, KOR. The experiment can be described thus: cell-based. The format is cell-based.
The target of the next experiment is 5HT2B serotonin receptor (Homo sapiens, UniProt P41595). Briefly: PDSP off-target binding, 5HT2B.
Another experiment deals with T4, 5HT2C serotonin receptor (Homo sapiens, UniProt P28335).
T4 sequence (P28335 33-458): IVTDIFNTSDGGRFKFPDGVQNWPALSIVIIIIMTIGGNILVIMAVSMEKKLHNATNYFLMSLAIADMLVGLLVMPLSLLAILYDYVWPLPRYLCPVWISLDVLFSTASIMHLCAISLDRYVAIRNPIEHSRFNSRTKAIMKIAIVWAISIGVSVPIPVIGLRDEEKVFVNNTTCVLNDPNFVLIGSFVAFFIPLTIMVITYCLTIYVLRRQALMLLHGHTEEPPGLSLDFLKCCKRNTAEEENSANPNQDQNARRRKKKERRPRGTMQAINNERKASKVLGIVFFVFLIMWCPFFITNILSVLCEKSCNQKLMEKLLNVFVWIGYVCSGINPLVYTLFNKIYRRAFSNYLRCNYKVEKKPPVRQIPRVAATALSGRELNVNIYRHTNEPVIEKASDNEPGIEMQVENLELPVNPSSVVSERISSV
Briefly: PDSP off-target binding, 5HT2C.

Experiment [4] deals with T5, mA3AR (Mus musculus, UniProt Q61618).
T5 sequence (Q61618 1-319): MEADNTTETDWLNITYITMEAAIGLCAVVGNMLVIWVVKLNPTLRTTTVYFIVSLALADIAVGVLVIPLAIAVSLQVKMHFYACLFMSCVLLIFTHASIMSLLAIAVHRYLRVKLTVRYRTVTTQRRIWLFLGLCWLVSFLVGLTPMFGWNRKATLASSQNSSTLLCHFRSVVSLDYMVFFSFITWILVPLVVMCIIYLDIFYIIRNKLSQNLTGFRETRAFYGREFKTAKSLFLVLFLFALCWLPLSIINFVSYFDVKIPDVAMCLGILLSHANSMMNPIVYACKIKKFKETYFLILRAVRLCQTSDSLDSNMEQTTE
As to conditions: ref Tosh et al. 2,3,6,34,35,37; cited from earlier work.

Experiment [5] concerns the target T5, mA3AR. Briefly: Mouse A3AR binding.
For the next experiment, the target named is T6, hA1AR (Homo sapiens, UniProt P30542).
T6 sequence (P30542 1-326): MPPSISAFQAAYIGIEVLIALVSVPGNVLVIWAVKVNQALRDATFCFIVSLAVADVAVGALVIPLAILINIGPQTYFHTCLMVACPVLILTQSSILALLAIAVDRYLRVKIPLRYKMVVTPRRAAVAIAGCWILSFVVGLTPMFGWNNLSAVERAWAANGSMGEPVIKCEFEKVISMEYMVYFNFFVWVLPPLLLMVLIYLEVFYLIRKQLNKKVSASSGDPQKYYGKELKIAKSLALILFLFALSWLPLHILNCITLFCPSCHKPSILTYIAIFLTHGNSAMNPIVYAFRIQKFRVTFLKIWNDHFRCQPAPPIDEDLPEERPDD
Briefly: hA1AR binding. Conditions: read-out: binding inhibition at hA1AR (% at 10 μM).

In a further experiment the target is hA2AAR (Homo sapiens, UniProt P29274). Briefly: hA2AAR binding. Conditions: read-out: binding inhibition at hA2AAR (% at 10 μM).
The target of a further experiment is T7, rat σ2 receptor (Rattus norvegicus, UniProt Q5U3Y7).
T7 sequence (Q5U3Y7 1-176): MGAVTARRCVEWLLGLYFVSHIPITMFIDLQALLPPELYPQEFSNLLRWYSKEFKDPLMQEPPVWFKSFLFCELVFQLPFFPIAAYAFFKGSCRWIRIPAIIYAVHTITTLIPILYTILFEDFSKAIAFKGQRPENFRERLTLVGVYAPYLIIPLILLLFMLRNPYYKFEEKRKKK
The experiment can be described thus: PDSP binding, σ2 receptor.

Chain of rat kidney TSPO (P16257 whole entry): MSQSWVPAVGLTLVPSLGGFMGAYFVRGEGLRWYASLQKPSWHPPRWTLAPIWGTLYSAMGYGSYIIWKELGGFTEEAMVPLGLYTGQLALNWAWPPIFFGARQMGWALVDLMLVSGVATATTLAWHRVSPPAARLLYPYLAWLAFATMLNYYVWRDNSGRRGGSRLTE
Chain of mA2AAR (Q60613 whole entry): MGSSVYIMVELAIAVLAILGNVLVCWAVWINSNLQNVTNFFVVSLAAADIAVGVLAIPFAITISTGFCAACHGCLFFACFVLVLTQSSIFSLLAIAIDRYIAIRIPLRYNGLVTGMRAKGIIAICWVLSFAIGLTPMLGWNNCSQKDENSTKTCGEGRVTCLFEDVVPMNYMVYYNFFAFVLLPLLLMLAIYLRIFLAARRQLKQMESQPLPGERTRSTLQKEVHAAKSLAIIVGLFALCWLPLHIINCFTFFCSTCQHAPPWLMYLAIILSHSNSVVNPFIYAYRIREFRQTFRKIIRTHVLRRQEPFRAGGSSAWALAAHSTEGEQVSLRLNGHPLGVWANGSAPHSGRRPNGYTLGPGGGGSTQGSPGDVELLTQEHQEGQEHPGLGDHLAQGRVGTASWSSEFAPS
T1 sequence (P41145 whole entry): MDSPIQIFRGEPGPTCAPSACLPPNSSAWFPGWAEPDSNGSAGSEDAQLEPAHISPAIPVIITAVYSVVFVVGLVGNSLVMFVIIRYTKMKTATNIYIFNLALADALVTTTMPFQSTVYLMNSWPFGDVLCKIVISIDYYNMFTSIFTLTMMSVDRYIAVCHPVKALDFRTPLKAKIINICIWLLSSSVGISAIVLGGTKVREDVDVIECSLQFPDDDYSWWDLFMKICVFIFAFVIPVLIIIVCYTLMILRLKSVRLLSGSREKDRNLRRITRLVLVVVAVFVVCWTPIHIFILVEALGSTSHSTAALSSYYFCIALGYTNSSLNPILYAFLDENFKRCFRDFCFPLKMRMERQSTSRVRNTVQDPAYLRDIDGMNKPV
Chain of DOR (P41143 whole entry): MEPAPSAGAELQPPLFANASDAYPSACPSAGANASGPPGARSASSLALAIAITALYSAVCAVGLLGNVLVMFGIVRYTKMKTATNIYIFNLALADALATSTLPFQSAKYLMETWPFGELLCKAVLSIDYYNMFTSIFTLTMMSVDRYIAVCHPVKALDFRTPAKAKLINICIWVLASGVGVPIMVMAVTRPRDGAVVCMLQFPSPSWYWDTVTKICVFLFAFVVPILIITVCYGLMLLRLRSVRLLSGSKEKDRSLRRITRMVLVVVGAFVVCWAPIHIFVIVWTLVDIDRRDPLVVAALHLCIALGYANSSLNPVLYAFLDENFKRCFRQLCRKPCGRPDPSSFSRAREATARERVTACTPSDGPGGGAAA
Chain of MOR (P35372 whole entry): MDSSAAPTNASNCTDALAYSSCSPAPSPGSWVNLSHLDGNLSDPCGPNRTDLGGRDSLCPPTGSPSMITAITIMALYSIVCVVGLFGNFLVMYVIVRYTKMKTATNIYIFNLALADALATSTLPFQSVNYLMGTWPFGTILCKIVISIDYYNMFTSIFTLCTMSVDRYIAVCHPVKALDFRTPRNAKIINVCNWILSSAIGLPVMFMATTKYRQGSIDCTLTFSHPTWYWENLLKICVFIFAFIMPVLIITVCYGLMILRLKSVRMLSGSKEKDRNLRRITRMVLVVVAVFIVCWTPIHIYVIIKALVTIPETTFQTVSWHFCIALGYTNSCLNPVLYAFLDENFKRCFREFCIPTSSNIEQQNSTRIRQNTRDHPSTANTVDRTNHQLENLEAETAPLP
Chain of hDAT (Q01959 whole entry): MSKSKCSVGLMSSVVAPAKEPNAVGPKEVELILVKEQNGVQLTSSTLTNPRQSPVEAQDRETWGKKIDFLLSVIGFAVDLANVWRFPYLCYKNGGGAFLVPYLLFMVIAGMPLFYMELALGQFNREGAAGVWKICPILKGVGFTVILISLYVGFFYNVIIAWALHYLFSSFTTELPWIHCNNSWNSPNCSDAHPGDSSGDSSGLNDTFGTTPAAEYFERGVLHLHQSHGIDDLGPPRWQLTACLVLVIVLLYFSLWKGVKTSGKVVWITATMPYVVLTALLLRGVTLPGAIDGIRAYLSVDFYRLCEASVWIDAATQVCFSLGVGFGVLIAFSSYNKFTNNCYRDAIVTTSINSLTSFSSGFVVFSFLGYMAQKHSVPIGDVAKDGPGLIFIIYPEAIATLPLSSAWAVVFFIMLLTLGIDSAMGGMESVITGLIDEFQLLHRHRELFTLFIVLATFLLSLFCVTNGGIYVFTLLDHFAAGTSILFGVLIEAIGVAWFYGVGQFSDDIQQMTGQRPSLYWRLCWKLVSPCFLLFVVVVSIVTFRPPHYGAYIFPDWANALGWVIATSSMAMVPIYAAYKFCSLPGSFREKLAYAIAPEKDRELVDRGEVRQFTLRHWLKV
Chain of 5HT2B serotonin receptor (P41595 whole entry): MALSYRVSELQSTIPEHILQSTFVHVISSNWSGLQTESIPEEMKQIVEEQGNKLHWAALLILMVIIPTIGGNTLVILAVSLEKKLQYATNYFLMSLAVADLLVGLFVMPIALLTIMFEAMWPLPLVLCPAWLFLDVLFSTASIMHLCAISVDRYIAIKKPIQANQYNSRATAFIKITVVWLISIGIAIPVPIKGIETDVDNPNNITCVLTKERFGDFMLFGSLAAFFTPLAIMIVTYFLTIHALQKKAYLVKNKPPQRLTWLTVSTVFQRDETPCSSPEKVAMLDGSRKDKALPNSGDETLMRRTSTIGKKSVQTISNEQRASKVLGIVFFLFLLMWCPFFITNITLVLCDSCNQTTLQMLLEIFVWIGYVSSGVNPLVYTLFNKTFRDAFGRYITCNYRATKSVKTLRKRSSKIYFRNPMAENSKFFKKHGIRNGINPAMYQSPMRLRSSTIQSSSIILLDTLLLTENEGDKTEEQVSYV
Chain of hA2AAR (P29274 whole entry): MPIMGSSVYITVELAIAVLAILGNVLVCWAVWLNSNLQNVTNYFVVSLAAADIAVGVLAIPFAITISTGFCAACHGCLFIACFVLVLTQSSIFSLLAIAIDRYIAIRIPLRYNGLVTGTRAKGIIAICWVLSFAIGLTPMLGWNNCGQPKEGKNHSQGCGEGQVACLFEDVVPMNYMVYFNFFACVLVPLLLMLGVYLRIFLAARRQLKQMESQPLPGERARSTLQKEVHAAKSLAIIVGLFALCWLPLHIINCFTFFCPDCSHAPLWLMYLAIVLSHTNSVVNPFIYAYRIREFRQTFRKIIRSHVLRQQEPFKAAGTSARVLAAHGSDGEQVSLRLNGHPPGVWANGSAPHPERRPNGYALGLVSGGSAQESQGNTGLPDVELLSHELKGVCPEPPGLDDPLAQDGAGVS

In the case of `CNc1nc(C#Cc2ccc(Cl)s2)nc2c1ncn2[C@@H]1O[C@H](C(=O)OC)[C@@H](O)[C@H]1O` [compound 46], the “KOR, inhibition of radioligand binding at 10 μM (class)” value at KOR [1] (Table 3, 10 μM) is given as “^d (30–50% inhibition of radioligand binding at 10 μM)”. Besides, the “DAT, inhibition, % of control at 10 μM” value on hDAT was “–220%”. For the same molecule, the inhibition at 10 µM came to 62% at mA1AR and 12% on mA2AAR.

With `CNc1nc(C#Cc2ccccc2)nc2c1ccn2[C@H]1[C@H](O)[C@H](O)[C@@H]2C[C@@H]21` [compound 54, (1R,2R,3S,4R,5S)-4-(4-(Methylamino)-2-(phenylethynyl)-7H-pyrrolo[2,3-d]pyrimidin-7-yl)bicyclo[3.1.0]hexane-2,3-diol], at DOR (Table 5), the “DOR, inhibition of radioligand binding at 10 μM (class)” value (from here on “DOR, inhibition of radioligand binding”) is on record as “^d (30–50% inhibition of radioligand binding at 10 μM)”. The Ki on KOR [1] amounted to 1.12 ± 0.22 µM; at MOR, 2.67 ± 0.28 µM; on hA3AR it was 0.0856 ± 0.012 µM. In addition, the “TSPO, inhibition of radioligand binding at 10 μM (class)” value (“TSPO, inhibition of radioligand binding” for short) on rat kidney TSPO (Table 5) was “^e (<30% inhibition of radioligand binding at 10 μM)”. In addition, the “DAT, inhibition, % of control at 10 μM” value at hDAT is listed as −58%. In addition, the “reduction of hA3AR binding affinity by 7-deaza modification” value on hA3AR (28 vs 24, 54 vs 49, 55 vs 51) came to 16 fold. Further, the “inhibition of agonist 98 in βarrestin2 assay” value at KOR [2] was “did not inhibit”. Besides, at KOR [3] (100 nM 98), the “inhibition of agonist 98 in cAMP assay” value was “did not inhibit”. The inhibition at 30 µM on KOR [3] (CHO, read-out: inhibition of cAMP accumulation, % inhibition at 30 μM) came to 16%.

As for `CCCOC(=O)[C@@]12C[C@@H]1[C@@H](n1cnc3c(NC)nc(C#Cc4ccc(Cl)s4)nc31)[C@H](O)[C@@H]2O` [compound 30], on DOR (Table 2), the “DOR, inhibition of radioligand binding” value is reported as “^d (<30% inhibition of radioligand binding at 10 μM)”. The figures for the Ki on KOR [1] and on rat kidney TSPO were 0.437 ± 0.167 µM and 1.16 ± 0.56 µM, respectively. The “MOR, inhibition of radioligand binding at 10 μM (class)” value (from here on “MOR, inhibition of radioligand binding”) at MOR is given as “^d (<30% inhibition of radioligand binding at 10 μM)”. Besides, the “DAT, inhibition, % of control at 10 μM” value on hDAT was “–426%”. Also, the inhibition at 10 µM turned out to be 53% at mA1AR and 13% on mA2AAR.

With `CCOC(=O)[C@@]12C[C@@H]1[C@@H](n1ccc3c(NC)nc(C#Cc4ccc(Cl)s4)nc31)[C@@H]1OC(C)(C)O[C@@H]12` [compound 77, Ethyl(3aR,3bS,4aS,5R,5aS)-5-(2-((5-chlorothiophen-2-yl)ethynyl)-4-(methylamino)-7H-pyrrolo[2,3-d]pyrimidin-7-yl)-2,2-dimethyltetrahydrocyclopropa[3,4]cyclopenta[1,2-d][1,3]dioxole-3b(3aH)-carboxylate], the Ki at DOR is 1.99 ± 1.02 µM; at KOR [1], 0.052 ± 0.023 µM; on MOR, 1.53 ± 0.56 µM; on hA3AR, 1.65 ± 0.33 µM; on 5HT2B serotonin receptor, 4.18 µM; on 5HT2C serotonin receptor, 0.016 µM. For the same molecule, the “TSPO, inhibition of radioligand binding” value at rat kidney TSPO (Table 2) was “^d (<30% inhibition of radioligand binding at 10 μM)”. For the same molecule, the “DAT, inhibition, % of control at 10 μM” value on hDAT was “–20%”. In addition, the “selectivity at 5HT2CR compared with 5HT2BR” value at 5HT2C serotonin receptor was 260 fold.

With `CNc1nc(C#Cc2ccc(Br)s2)nc2c1ncn2[C@H]1[C@H](O)[C@H](O)[C@]2(C(=O)OC)C[C@H]12` [compound 23], the “DOR, inhibition of radioligand binding” value on DOR (Table 2) is listed as “^d (<30% inhibition of radioligand binding at 10 μM)”. The Ki came to 2.09 ± 0.33 µM on KOR [1], 8.12 ± 0.67 µM on rat kidney TSPO and 2.33 µM on 5HT2C serotonin receptor. In addition, the “MOR, inhibition of radioligand binding” value on MOR is reported as “^c (30–50% inhibition of radioligand binding at 10 μM)”. Besides, at hDAT, the “DAT, inhibition, % of control at 10 μM” value is given as “–370%”. Besides, the “A3AR binding, % at 10 μM (m)” value on mA3AR [4] was 57 ± 1%.

With `CCOC(=O)[C@@]12C[C@@H]1[C@@H](n1cnc3c(NC)cc(C#Cc4ccc(Cl)s4)nc31)[C@H](O)[C@@H]2O` [compound 26], the “DOR, inhibition of radioligand binding” value on DOR (Table 2) was “^c (30–50% inhibition of radioligand binding at 10 μM)”. Also, the Ki at KOR [1] is 0.806 ± 0.263 µM; at rat kidney TSPO, 3.81 ± 0.1 µM; on hA3AR, 0.0294 ± 0.0138 µM; on mA3AR [5], 0.828 µM; at rat σ2 receptor it was 1.76 µM. The “MOR, inhibition of radioligand binding” value on MOR is listed as “^c (30–50% inhibition of radioligand binding at 10 μM)”. Besides, the “DAT, inhibition, % of control at 10 μM” value on hDAT is recorded as below 10%. The inhibition at 10 µM on hA1AR was found to be 39%; at hA2AAR, 16%; on mA1AR, 54%; at mA2AAR it was 5%.

Turning to `CNc1nc(C#Cc2ccc(Cl)s2)nc2c1ncn2[C@H]1[C@H](O)[C@H](O)[C@]2(C(=O)OC)C[C@H]12` [compound 22], the “DOR, inhibition of radioligand binding” value on DOR (Table 2) is listed as “^d (<30% inhibition of radioligand binding at 10 μM)”. On KOR [1], this molecule displayed an inhibition constant (Ki) of 3.13 ± 0.3 µM. At MOR, the “MOR, inhibition of radioligand binding” value was “^c (30–50% inhibition of radioligand binding at 10 μM)”. For the same molecule, the “TSPO, inhibition of radioligand binding” value on rat kidney TSPO (Table 2) is reported as “^c (30–50% inhibition of radioligand binding at 10 μM)”. Besides, the “DAT, inhibition, % of control at 10 μM” value on hDAT is “–352%”. For the same molecule, the “A3AR binding, % at 10 μM (m)” value on mA3AR [4] was 36 ± 1%.

In general, inhibition refers to the change of the read-out against control, counted positive when it falls. In general, Ki refers to a dissociation constant, usually derived from enzyme kinetics or from competition with a known ligand. Lower therefore signals tighter binding.

The values are drawn from paper PMC6210068 (ACS Omega, 2018).
